Source: patent US4027017A, “Method of treating alcoholism” (Chugai Seiyaku Kabushiki Kaisha, priority 1974, dated 1977)
Several values for one entry are separate records, joined by “and”; a condition that tells them apart may be missing. Equal values may be shown once. Entries after “also recorded” stand apart in the source; their conditions may differ.

Tests used:
alcohol level in blood = experiment: Measurement of alcohol level in blood (alcoholic dehydrogenase method) and behavior; type: in vivo, Sprague Dawley strain female rats; conditions: 30 min before ethanol 6 g/kg
Method: Measurement of Alcohol Level in Blood
In this Example, Sprague Dawley strain female rats (weighing 150±20 g) divided into groups of 9-12 members each were used.
After abstention from food overnight each rat was orally administered trisodium uridine-5'-diphosphate glucuronic acid (UDPGA.3Na) in the form of a physiological saline solution in a dose of 160 mg/kg.body weight as an effective ingredient and, 30 minutes after the administration, the rat was administered with ethanol in a dose of 6 g/kg body weight. Four hours and thirty minutes after the administration of ethanol, the rat was etherized, and blood was sampled from its heart to determine alcohol level in the blood by a alcoholic dehydrogenase method. For control, a physiological saline solution was used instead of the UDPGA.3Na solution.

[1] = tested on: Sprague Dawley strain male rats; experiment: Behaviour and righting reflex after ethanol, UDPGA.3Na given 30 minutes before ethanol; type: in vivo; conditions: 160 mg/kg oral 30 min before ethanol 6 g/kg
Method: The Sprague Dawley strain male rats weighing 260±30 g which had been fed rat food commerically available as CLEA CE-2 and prevented from eating food for 12 hours just before the experiment were divided into groups each of 10-13 members each. Each rat was orally administered trisodium uridine-5'-diphosphate glucuronic acid (UDPGA.3Na) in the form of a suspension in corn oil in an amount 160 mg/kg.body weight. Thirty minutes after the administration, ethanol as a 50% aqueous solution was orally administered in a dose of 6 g/kg.body weight and then behavior of the rat was observed over 24 hours.

neutral lipid in liver = experiment: Inhibiting action for accumulation of neutral lipid in liver (ethanol-treated rats; Van Handel and Zilver-Smit method); type: in vivo, Sprague Dawley strain male rats; conditions: 160 mg/kg oral in corn oil, 30 min before ethanol 6 g/kg oral; liver taken 24 hours after
Method: Inhibiting Action for Accumulation of Neutral Lipid in Liver […] Each rat was orally administered with trisodium uridine-5'-diphosphate glucuronic acid (UDPGA-3.Na) as a suspension in corn oil in a dose of 160 mg/kg.body weight. Thirty minutes after the administration, each rat was orally administered with ethanol as a 50% aqueous solution in a dose of 6 g/kg.body weight and, 24 hours after the administration, the liver was taken out and an amount of neutral lipid contained therein was determined by the Van Handel and Zilver-Smit method. For control, a glucose aqueous solution having a caloric content equivalent to the same amount of ethanol was used instead of ethanol.

[2] = tested on: Sprague Dawley strain male rats; experiment: Behaviour and righting reflex after ethanol, UDPGA.3Na given 30 minutes after ethanol; type: in vivo; conditions: 160 mg/kg oral 30 min after ethanol 6 g/kg
Method: The Sprague Dawley strain male rats weighing 160±30 g which were fed rat food commercially available as CLEA CE-2 and prevented from eating food for 12 hours just before the experiment was started. Each rat was administered with ethanol as a 50% aqueous solution in a dose of 6 g/kg.body weight. Thirty minutes after the administration, the rat was orally administered with a suspension of trisodium uridine-5'-diphosphate glucuronic acid (UDPGA.3Na) in corn oil in a dose of 160 mg/kg.body weight based on UDPGA.3Na. The behavior of the rat was observed over 24 hours after the last administration.

SMILES: O=C(O)[C@H]1O[C@H](OP(=O)(O)OP(=O)(O)OC[C@H]2O[C@@H](n3ccc(=O)[nH]c3=O)[C@H](O)[C@@H]2O)[C@H](O)[C@@H](O)[C@@H]1O [UDPGA.3Na, trisodium uridine-5'-diphosphate glucuronic acid]
- Ethanol level in Blood, Average (alcohol level in blood; 160 mg/kg oral in physiological saline, blood 4 h 30 min after ethanol, Confidence Limits: 98%): 1.59 ± 0.93 mg/mL
- Ethanol level in Blood (individual test animals) (alcohol level in blood; 160 mg/kg oral in physiological saline, blood 4 h 30 min after ethanol, test animals 1-12 in block order): 2.21 mg/mL and 1.65 mg/mL and 1.82 mg/mL and 1.41 mg/mL and 1.19 mg/mL and 2.15 mg/mL and 0.85 mg/mL and 0.37 mg/mL and 0.63 mg/mL and 1.79 mg/mL and 2.19 mg/mL and 2.82 mg/mL
- Behavior (individual test animals) (alcohol level in blood; 160 mg/kg oral in physiological saline, test animals 1-12 in block order): lying flat; also recorded: normal walking; also recorded: deep sleep
- alcohol level in blood in comparison with the control (alcohol level in blood; 160 mg/kg oral, blood 4 h 30 min after ethanol): significantly lowered
- Behaviour: Deep Sleep ([1]; 3 hrs. after alcohol): 2 heads
- Behaviour: Lying Flat ([1]; 3 hrs. after alcohol): 4 heads
- Behaviour: Normal Walking ([1]; 3 hrs. after alcohol): 4 heads
- Righting Reflex + ([1]; 3 hrs. after alcohol): 7 heads
- Righting Reflex - ([1]; 3 hrs. after alcohol): 3 heads
- Behaviour: Deep Sleep ([1]; 6 hrs. after alcohol): 2 heads
- Behaviour: Lying Flat ([1]; 6 hrs. after alcohol): 6 heads
- Behaviour: Normal Walking ([1]; 6 hrs. after alcohol): 2 heads
- Righting Reflex + ([1]; 6 hrs. after alcohol): 7 heads
- Righting Reflex - ([1]; 6 hrs. after alcohol): 3 heads
- Behaviour: Deep Sleep ([1]; 9 hrs. after alcohol): 1 heads
- Behaviour: Lying Flat ([1]; 9 hrs. after alcohol): 6 heads
- Behaviour: Normal Walking ([1]; 9 hrs. after alcohol): 3 heads
- Righting Reflex + ([1]; 9 hrs. after alcohol): 9 heads
- Righting Reflex - ([1]; 9 hrs. after alcohol): 1 heads
- Behaviour: Deep Sleep ([1]; 12 hrs. after alcohol): 0 heads
- Behaviour: Lying Flat ([1]; 12 hrs. after alcohol): 0 heads
- Behaviour: Normal Walking ([1]; 12 hrs. after alcohol): 10 heads
- Righting Reflex + ([1]; 12 hrs. after alcohol): 10 heads
- Righting Reflex - ([1]; 12 hrs. after alcohol): 0 heads
- Behaviour: Deep Sleep ([1]; 18 hrs. after alcohol): 0 heads
- Behaviour: Lying Flat ([1]; 18 hrs. after alcohol): 0 heads
- Behaviour: Normal Walking ([1]; 18 hrs. after alcohol): 10 heads
- Righting Reflex + ([1]; 18 hrs. after alcohol): 10 heads
- Righting Reflex - ([1]; 18 hrs. after alcohol): 0 heads
- % inhibition (neutral lipid in liver) (neutral lipid in liver): 59.7%
- Neutral Lipid in Liver (neutral lipid in liver): 23.05 ± 10.72 mg/g
- Behaviour: Deep Sleep ([2]; 3 hrs. after alcohol): 2 heads
- Behaviour: Lying Flat ([2]; 3 hrs. after alcohol): 5 heads
- Behaviour: Normal Walking ([2]; 3 hrs. after alcohol): 3 heads
- Righting Reflex + ([2]; 3 hrs. after alcohol): 7 heads
- Righting Reflex - ([2]; 3 hrs. after alcohol): 3 heads
- Behaviour: Deep Sleep ([2]; 6 hrs. after alcohol): 2 heads
- Behaviour: Lying Flat ([2]; 6 hrs. after alcohol): 6 heads
- Behaviour: Normal Walking ([2]; 6 hrs. after alcohol): 2 heads
- Righting Reflex + ([2]; 6 hrs. after alcohol): 7 heads
- Righting Reflex - ([2]; 6 hrs. after alcohol): 3 heads
- Behaviour: Deep Sleep ([2]; 9 hrs. after alcohol): 1 heads
- Behaviour: Lying Flat ([2]; 9 hrs. after alcohol): 3 heads
- Behaviour: Normal Walking ([2]; 9 hrs. after alcohol): 6 heads
- Righting Reflex + ([2]; 9 hrs. after alcohol): 8 heads
- Righting Reflex - ([2]; 9 hrs. after alcohol): 2 heads
- Behaviour: Deep Sleep ([2]; 12 hrs. after alcohol): 0 heads
- Behaviour: Lying Flat ([2]; 12 hrs. after alcohol): 2 heads
- Behaviour: Normal Walking ([2]; 12 hrs. after alcohol): 8 heads
- Righting Reflex + ([2]; 12 hrs. after alcohol): 10 heads
- Righting Reflex - ([2]; 12 hrs. after alcohol): 0 heads
- Behaviour: Deep Sleep ([2]; 18 hrs. after alcohol): 0 heads
- Behaviour: Lying Flat ([2]; 18 hrs. after alcohol): 0 heads
- Behaviour: Normal Walking ([2]; 18 hrs. after alcohol): 10 heads
- Righting Reflex + ([2]; 18 hrs. after alcohol): 10 heads
- Righting Reflex - ([2]; 18 hrs. after alcohol): 0 heads
